Experimental data: the supplement of paper PMC11061612

Legend:
Assay in all cases: Bliss excess, mean over the matrix (fraction); higher = more synergy
[1] = tested on: AMO-1 (Plasma Cell Myeloma)
Procedure, shortened: (§1)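 Cell lines grown in DMEM/F12 or RPMI with 10% FBS were plated in 1536-well plates and held 24 hours at 37°C, 5% CO2 before 72 hours of exposure to two-drug dose matrices, with DMSO typically at 0.2%. CellTiter-Glo 2.0 luminescence gave viability, which was converted to inhibition. Vehicle wells were set to 0 and blank wells to 1. Combination Emax is the second-highest inhibition in the matrix, and Bliss excess is the observed combination effect minus the expected EA + EB − EA·EB, where EA and EB are the single-agent effects.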

[2] = tested on: NCI-H727 (Other Solid Carcinomas)
Procedure, shortened: as §1

[3] = tested on: TGW (Neuroblastoma)
Procedure, shortened: as §1

[4] = tested on: RF-48 (B-Cell Non-Hodgkin's Lymphoma)
Procedure, shortened: as §1

[5] = tested on: NCI-H358 (Lung Adenocarcinoma)
Procedure, shortened: as §1

[6] = tested on: MLMA (Other Blood Carcinomas)
Procedure, shortened: as §1

[7] = tested on: PANC-04-03 (Pancreatic Carcinoma)
Procedure, shortened: as §1

[8] = tested on: ACHN (Kidney Carcinoma)
Procedure, shortened: as §1

[9] = tested on: UACC-62 (Melanoma)
Procedure, shortened: as §1

[10] = tested on: SW13 (Other Solid Carcinomas)
Procedure, shortened: as §1

[11] = tested on: YH-13 (Glioblastoma)
Procedure, shortened: as §1

[12] = tested on: NB69 (Neuroblastoma)
Procedure, shortened: as §1

[13] = tested on: LU-65 (Non-Small Cell Lung Carcinoma)
Procedure, shortened: as §1

[14] = tested on: BT-549 (Breast Carcinoma)
Procedure, shortened: as §1

[15] = tested on: MIA-PaCa-2 (Pancreatic Carcinoma)
Procedure, shortened: as §1

[16] = tested on: Caov-4 (Ovarian Carcinoma)
Procedure, shortened: as §1

[17] = tested on: EFM-19 (Breast Carcinoma)
Procedure, shortened: as §1

[18] = tested on: EoL-1-cell (Acute Myeloid Leukemia)
Procedure, shortened: as §1

[19] = tested on: Hs-766T (Pancreatic Carcinoma)
Procedure, shortened: as §1

[20] = tested on: EW-24 (Ewing's Sarcoma)
Procedure, shortened: as §1

| SMILES | Bliss excess [1] | Bliss excess [2] | Bliss excess [3] | Bliss excess [4] | Bliss excess [5] | Bliss excess [6] | Bliss excess [7] | Bliss excess [8] | Bliss excess [9] | Bliss excess [10] | Bliss excess [11] | Bliss excess [12] | Bliss excess [13] | Bliss excess [14] | Bliss excess [15] | Bliss excess [16] | Bliss excess [17] | Bliss excess [18] | Bliss excess [19] | Bliss excess [20] |
| --- | --- | --- | --- | --- | --- | --- | --- | --- | --- | --- | --- | --- | --- | --- | --- | --- | --- | --- | --- | --- |
| CN(CCO)CC[C@H](CSc1ccccc1)Nc1ccc(S(=O)(=O)NC(=O)c2ccc(N3CCC([C@@H](O)c4ccccc4-c4ccc(Cl)cc4)CC3)cc2)cc1S(=O)(=O)C(F)(F)F [AZD4320] + C1CN(CCC1(C(=O)N[C@@H](CCO)C2=CC=C(C=C2)Cl)N)C3=NC=NC4=C3C=CN4 [Capivasertib] (first compound max 1 µM, 7x7, partner max 3 µM) | -0.0045 | -0.0891 | 0.0065 | -0.0097 | -0.0172 | 0.0534 | -0.0875 | -0.0341 | -0.0584 | -0.0326 | -0.0491 | -0.0554 | -0.0108 | -0.0094 | -0.0476 | -0.0357 | -0.0292 | 0.0007 | -0.0492 | -0.0378 |
| CN(CCO)CC[C@H](CSc1ccccc1)Nc1ccc(S(=O)(=O)NC(=O)c2ccc(N3CCC([C@@H](O)c4ccccc4-c4ccc(Cl)cc4)CC3)cc2)cc1S(=O)(=O)C(F)(F)F [AZD4320] + C=CCn1c(=O)c2cnc(Nc3ccc(N4CCN(C)CC4)cc3)nc2n1-c1cccc(C(C)(C)O)n1 [AZD1775] (first compound max 1 µM, partner max 1 µM) | 0.0119 | -0.0587 | -0.008 | 0.0896 | -0.0765 | 0.0379 | -0.048 | 0.0342 | 0.025 | -0.02 | -0.0163 | 0.0032 | -0.0162 | 0.0109 | -0.0176 | -0.0248 | 0.0433 | -0.0146 | -0.0431 | 0.119 |
| CN(CCO)CC[C@H](CSc1ccccc1)Nc1ccc(S(=O)(=O)NC(=O)c2ccc(N3CCC([C@@H](O)c4ccccc4-c4ccc(Cl)cc4)CC3)cc2)cc1S(=O)(=O)C(F)(F)F [AZD4320] + CC(=O)O[C@H]1C(=O)[C@@]2(C)[C@H]([C@H](OC(=O)c3ccccc3)[C@]3(O)C[C@H](OC(=O)[C@H](O)[C@@H](NC(=O)c4ccccc4)c4ccccc4)C(C)=C1C3(C)C)[C@]1(OC(C)=O)CO[C@@H]1C[C@@H]2O [Paclitaxel] (first compound max 1 µM, 7x7, partner max 3 µM) | 0.0173 | 0.101 | -0.0472 | -0.0029 | 0.0117 | 0.0254 | -0.0033 | -0.0319 | 0.0953 |  | 0.0619 | 0.0148 | 0.0224 | 0.0578 | 0.0064 | 0.0863 | 0.0898 | -0.0057 | -0.0002 | 0.17 |
| CN(CCO)CC[C@H](CSc1ccccc1)Nc1ccc(S(=O)(=O)NC(=O)c2ccc(N3CCC([C@@H](O)c4ccccc4-c4ccc(Cl)cc4)CC3)cc2)cc1S(=O)(=O)C(F)(F)F [AZD4320] + CCN(CCO)CCCOc1ccc2c(Nc3cc(CC(=O)Nc4cccc(F)c4)[nH]n3)ncnc2c1 [AZD2811] (first compound max 1 µM, 7x7, partner max 1 µM) | -0.0102 | -0.0221 | -0.032 | 0.0643 | -0.0337 | 0.0437 | -0.0435 | 0.0089 | 0.0105 | -0.0152 | 0.0819 | -0.0077 | -0.0437 | 0.0218 | 0.0532 | -0.0141 | 0.147 | -0.002 | -0.0485 | 0.0538 |
| CN(CCO)CC[C@H](CSc1ccccc1)Nc1ccc(S(=O)(=O)NC(=O)c2ccc(N3CCC([C@@H](O)c4ccccc4-c4ccc(Cl)cc4)CC3)cc2)cc1S(=O)(=O)C(F)(F)F [AZD4320] + C[C@@H]1COCCN1C2=NC(=NC(=C2)C3(CC3)[S@](=N)(=O)C)C4=C5C=CNC5=NC=C4 [AZD6738] (first compound max 1 µM, 7x7, partner max 10 µM) |  | -0.0735 | -0.0629 | 0.0017 | -0.0195 | 0.0229 | -0.0714 | -0.0099 | -0.0317 | -0.0208 | -0.0035 | -0.0533 | -0.0092 | -0.0239 | -0.045 | -0.027 | -0.0511 | 0.0252 | -0.108 | 0.0267 |
| CN(CCO)CC[C@H](CSc1ccccc1)Nc1ccc(S(=O)(=O)NC(=O)c2ccc(N3CCC([C@@H](O)c4ccccc4-c4ccc(Cl)cc4)CC3)cc2)cc1S(=O)(=O)C(F)(F)F [AZD4320] + C[C@@H](Nc1cc(F)cc(F)c1)c1cc(C(=O)N(C)C)cc2c(=O)cc(N3CCOCC3)oc12 [AZD8186] (first compound max 1 µM, 7x7, partner max 3 µM) | 0.0318 | 0.0309 | -0.027 | 0.0072 | -0.0461 | 0.0859 | 0.0202 | 0.0163 | 0.102 | 0.0064 | 0.0513 | -0.0381 | -0.0216 | -0.0156 | -0.0084 | 0.0112 | -0.0426 | 0.0255 | 0.0113 | -0.0214 |
| CN(CCO)CC[C@H](CSc1ccccc1)Nc1ccc(S(=O)(=O)NC(=O)c2ccc(N3CCC([C@@H](O)c4ccccc4-c4ccc(Cl)cc4)CC3)cc2)cc1S(=O)(=O)C(F)(F)F [AZD4320] + Cc1cc2ncnn2cc1Nc1ncc2c(n1)n(C1CCOCC1)c(=O)n2C [AZD7648] (first compound max 1 µM, 7x7, partner max 10 µM) | -0.0243 | -0.0609 | 0.0125 | -0.0205 | -0.0394 | 0.0082 | -0.0556 | -0.0186 | -0.0329 | -0.0371 | -0.0186 | -0.0649 | -0.007 | -0.0213 | -0.0636 | -0.0277 | -0.0326 | 0.0476 | -0.0842 | -0.0171 |
| CN(CCO)CC[C@H](CSc1ccccc1)Nc1ccc(S(=O)(=O)NC(=O)c2ccc(N3CCC([C@@H](O)c4ccccc4-c4ccc(Cl)cc4)CC3)cc2)cc1S(=O)(=O)C(F)(F)F [AZD4320] + Cn1cnc2c(F)c(Nc3ccc(Br)cc3Cl)c(C(=O)NOCCO)cc21 [Selumetinib] (first compound max 1 µM, 7x7, partner max 3 µM) | 0.0579 | 0.0963 | 0.0147 | -0.0317 | 0.0054 | 0.0436 | 0.0708 | 0.0429 | -0.0035 | 0.0166 | -0.0219 | -0.0973 | 0.0176 | -0.0231 | -0.0098 | 0.0418 | -0.102 | 0.0593 | -0.013 | -0.0352 |
| CN(CCO)CC[C@H](CSc1ccccc1)Nc1ccc(S(=O)(=O)NC(=O)c2ccc(N3CCC([C@@H](O)c4ccccc4-c4ccc(Cl)cc4)CC3)cc2)cc1S(=O)(=O)C(F)(F)F [AZD4320] + Nc1ccn([C@@H]2O[C@H](CO)[C@@H](O)C2(F)F)c(=O)n1 [Gemcitabine] (first compound max 1 µM, 7x7, partner max 0.3 µM) | -0.036 | 0.0335 | 0.0257 | -0.0365 | -0.0227 | -0.0381 | -0.0496 | 0.0947 | -0.006 | -0.017 | 0.0368 | -0.0203 | -0.0667 | -0.0365 | -0.025 | -0.0556 | 0.0067 | 0.0217 | -0.0777 | 0.118 |
| Cc1cc2ncnn2cc1Nc1ncc2c(n1)n(C1CCOCC1)c(=O)n2C [AZD7648] + C=CCn1c(=O)c2cnc(Nc3ccc(N4CCN(C)CC4)cc3)nc2n1-c1cccc(C(C)(C)O)n1 [AZD1775] (first compound max 10 µM, partner max 1 µM) | -0.0422 | 0.024 | -0.0505 | 0.0239 | -0.0156 | -0.0665 | 0.0135 | -0.0178 | 0.0242 | 0.0004 | 0.0076 | -0.0504 | -0.0027 | -0.0348 | -0.0459 | 0.0222 | -0.0596 | 0.0137 | -0.0274 | -0.0294 |
| Cc1cc2ncnn2cc1Nc1ncc2c(n1)n(C1CCOCC1)c(=O)n2C [AZD7648] + CCN(CCO)CCCOc1ccc2c(Nc3cc(CC(=O)Nc4cccc(F)c4)[nH]n3)ncnc2c1 [AZD2811] (first compound max 10 µM, 7x7, partner max 1 µM) | 0.0431 | -0.0003 | 0.0148 | 0.0013 | -0.0718 | -0.0095 | -0.0078 | -0.0051 | -0.0027 | 0.0406 | -0.0762 | -0.0195 | 0.0057 | 0.013 | 0.0108 | 0.0293 | 0.116 | -0.0572 | -0.0197 | -0.0051 |
| Cc1cc2ncnn2cc1Nc1ncc2c(n1)n(C1CCOCC1)c(=O)n2C [AZD7648] + CN(C)CCCOc1ccc(-c2ccc3ncc4c(c3c2)n(C2CCOCC2)c(=O)n4C)cn1 [AZD0156] (first compound max 10 µM, 7x7, partner max 1 µM) | 0.0135 | 0.0162 | 0.0804 | -0.0144 | 0.0054 | -0.0187 | 0.0016 | 0.0104 | 0.0247 | 0.0107 | -0.0263 | -0.0382 | 0.0053 | 0.0101 | -0.003 | 0.0511 | -0.0815 | 0.0279 | -0.0324 | -0.0643 |
| Cc1cc2ncnn2cc1Nc1ncc2c(n1)n(C1CCOCC1)c(=O)n2C [AZD7648] + COc1cc([C@@H]2c3cc4c(cc3[C@@H](O[C@@H]3O[C@@H]5CO[C@@H](C)O[C@H]5[C@H](O)[C@H]3O)[C@H]3COC(=O)[C@H]23)OCO4)cc(OC)c1O [Etoposide] (first compound max 10 µM, 7x7, partner max 10 µM) | 0.138 | -0.0041 | 0.0615 | 0.0671 | -0.0079 | -0.0968 | 0.017 | 0.0535 | 0.045 | 0.0808 | 0.0877 | -0.0239 | 0.0212 | 0.0306 | 0.05 | 0.0606 | -0.0295 | 0.191 | -0.0566 | 0.0463 |
